System: MV-4-11 cells
Assay: Gene expression microarray analysis (Affymetrix PrimeView) and GSEA
Type: cell-based, human
Parameters: RFU PODN (11730768_x_at) / Fold change /veh PODN (11730768_x_at) / RFU LINC00158 (11744669_a_at) / Fold change /veh LINC00158 (11744669_a_at) / RFU DUSP10 (11751237_a_at) / Fold change /veh DUSP10 (11751237_a_at) / RFU ID3 (11757404_x_at) / Fold change /veh ID3 (11757404_x_at) / RFU PLEKHG5 (11737974_s_at) / Fold change /veh PLEKHG5 (11737974_s_at) / RFU LRRC4B (11730491_at) / Fold change /veh LRRC4B (11730491_at) / RFU GIMAP4 (11747438_a_at) / Fold change /veh GIMAP4 (11747438_a_at) / RFU KRT8 (11758183_x_at) / Fold change /veh KRT8 (11758183_x_at) / RFU CNN1 (11734310_a_at) / Fold change /veh CNN1 (11734310_a_at) / RFU VPS37D (11726825_at) / Fold change /veh VPS37D (11726825_at) / RFU C10orf10 (11716522_x_at) / Fold change /veh C10orf10 (11716522_x_at) / RFU KIR2DL2 /// KIR2DL4 /// KIR2DL5A /// KIR2DL5B /// KIR2DS1 /// KIR2DS2 /// KIR2DS3 /// KIR2DS4 /// KIR3DL3 /// KIR3DL3 /// KIR3DS1 (11738374_at) / Fold change /veh KIR2DL2 /// KIR2DL4 /// KIR2DL5A /// KIR2DL5B /// KIR2DS1 /// KIR2DS2 /// KIR2DS3 /// KIR2DS4 /// KIR3DL3 /// KIR3DL3 /// KIR3DS1 (11738374_at) / RFU C1QL1 (11718748_at) / Fold change /veh C1QL1 (11718748_at) / RFU TMPRSS4 (11747572_a_at) / Fold change /veh TMPRSS4 (11747572_a_at) / RFU HAMP (11756126_x_at) / Fold change /veh HAMP (11756126_x_at) / RFU RNFT2 (11725882_a_at) / Fold change /veh RNFT2 (11725882_a_at) / RFU NR4A2 (11747474_a_at) / Fold change /veh NR4A2 (11747474_a_at) / RFU ABCC12 (11746883_a_at) / Fold change /veh ABCC12 (11746883_a_at) / RFU TMEM136 (11760407_x_at) / Fold change /veh TMEM136 (11760407_x_at) / RFU CLDN22 /// WWC2 (11732394_at) / Fold change /veh CLDN22 /// WWC2 (11732394_at) / RFU HLA-DPB1 (11760878_x_at) / Fold change /veh HLA-DPB1 (11760878_x_at) / RFU SPINT1 (11716480_a_at) / Fold change /veh SPINT1 (11716480_a_at) / RFU GAP43 (11754022_s_at) / Fold change /veh GAP43 (11754022_s_at) / RFU A4GNT (11735810_at) / Fold change /veh A4GNT (11735810_at) / RFU PRB3 (11715151_x_at) / Fold change /veh PRB3 (11715151_x_at) / RFU TUBB4B (11761932_at) / Fold change /veh TUBB4B (11761932_at) / RFU CAPN14 (11732068_a_at) / Fold change /veh CAPN14 (11732068_a_at) / RFU TMCC2 (11721928_a_at) / Fold change /veh TMCC2 (11721928_a_at) / RFU IRGQ (11745062_a_at) / Fold change /veh IRGQ (11745062_a_at) / RFU FAM174B (11720279_a_at) / Fold change /veh FAM174B (11720279_a_at) / RFU TMPRSS4 (11748680_a_at) / Fold change /veh TMPRSS4 (11748680_a_at) / RFU FAM212B (11763350_a_at) / Fold change /veh FAM212B (11763350_a_at) / RFU PLEKHG5 (11743358_a_at) / Fold change /veh PLEKHG5 (11743358_a_at) / RFU ZSCAN30 (11745921_a_at) / Fold change /veh ZSCAN30 (11745921_a_at) / RFU CMKLR1 (11741424_a_at) / Fold change /veh CMKLR1 (11741424_a_at) / RFU LOC101060620 /// MAPK8IP1 (11723275_at) / Fold change /veh LOC101060620 /// MAPK8IP1 (11723275_at) / RFU SPTSSB (11747773_x_at) / Fold change /veh SPTSSB (11747773_x_at) / RFU PRSS12 (11739890_at) / Fold change /veh PRSS12 (11739890_at) / RFU BIN1 (11741810_x_at) / Fold change /veh BIN1 (11741810_x_at) / RFU WNT11 (11732464_a_at) / Fold change /veh WNT11 (11732464_a_at) / RFU C10orf10 (11716521_a_at) / Fold change /veh C10orf10 (11716521_a_at) / RFU C5orf56 (11738089_at) / Fold change /veh C5orf56 (11738089_at) / RFU CYB561 (11721691_x_at) / Fold change /veh CYB561 (11721691_x_at) / RFU ANKRD19P (11752326_a_at) / Fold change /veh ANKRD19P (11752326_a_at) / RFU OR2T12 /// OR2T33 /// OR2T8 (11738714_s_at) / Fold change /veh OR2T12 /// OR2T33 /// OR2T8 (11738714_s_at) / RFU VCAN (11748164_a_at) / Fold change /veh VCAN (11748164_a_at) / RFU JSRP1 (11732532_at) / Fold change /veh JSRP1 (11732532_at) / RFU KRTAP10-11 (11738290_x_at) / Fold change /veh KRTAP10-11 (11738290_x_at) / RFU MYO3A (11730013_a_at) / Fold change /veh MYO3A (11730013_a_at) / RFU EBF3 (11725865_a_at) / Fold change /veh EBF3 (11725865_a_at) / RFU CAMK2N1 (11719241_x_at) / Fold change /veh CAMK2N1 (11719241_x_at) / RFU C5orf56 (11738088_a_at) / Fold change /veh C5orf56 (11738088_a_at) / RFU OLFML3 (11715873_a_at) / Fold change /veh OLFML3 (11715873_a_at) / RFU LOC100653217 /// NTM (11731650_a_at) / Fold change /veh LOC100653217 /// NTM (11731650_a_at) / RFU MAPK11 (11762145_a_at) / Fold change /veh MAPK11 (11762145_a_at) / RFU FIZ1 (11724087_x_at) / Fold change /veh FIZ1 (11724087_x_at) / RFU OASL (11726364_x_at) / Fold change /veh OASL (11726364_x_at) / RFU SOX15 (11748057_x_at) / Fold change /veh SOX15 (11748057_x_at) / RFU CD79A (11719716_a_at) / Fold change /veh CD79A (11719716_a_at) / RFU HIST1H1D (11736915_at) / Fold change /veh HIST1H1D (11736915_at) / RFU CASKIN2 (11723855_a_at) / Fold change /veh CASKIN2 (11723855_a_at) / RFU LOC730098 (11760151_x_at) / Fold change /veh LOC730098 (11760151_x_at) / RFU OR4N2 (11742367_at) / Fold change /veh OR4N2 (11742367_at) / RFU PRRT2 (11749266_a_at) / Fold change /veh PRRT2 (11749266_a_at) / RFU SNX32 (11753110_a_at) / Fold change /veh SNX32 (11753110_a_at) / RFU CDHR5 (11726645_a_at) / Fold change /veh CDHR5 (11726645_a_at) / RFU RCAN1 (11760418_a_at) / Fold change /veh RCAN1 (11760418_a_at) / RFU FAM167A (11723789_a_at) / Fold change /veh FAM167A (11723789_a_at) / RFU FAM26E (11764081_at) / Fold change /veh FAM26E (11764081_at) / RFU ISYNA1 (11749810_s_at) / Fold change /veh ISYNA1 (11749810_s_at) / RFU ACY1 (11761880_at) / Fold change /veh ACY1 (11761880_at) / RFU 11764098_at / Fold change /veh 11764098_at / RFU SAMD14 (11745864_x_at) / Fold change /veh SAMD14 (11745864_x_at) / RFU NPB (11741838_a_at) / Fold change /veh NPB (11741838_a_at) / RFU TMPRSS6 (11731388_a_at) / Fold change /veh TMPRSS6 (11731388_a_at) / RFU KRTAP10-2 (11738614_at) / Fold change /veh KRTAP10-2 (11738614_at) / RFU ARHGAP8 /// PRR5-ARHGAP8 (11727945_x_at) / Fold change /veh ARHGAP8 /// PRR5-ARHGAP8 (11727945_x_at) / RFU KRTAP5-7 /// NADSYN1 (11734609_at) / Fold change /veh KRTAP5-7 /// NADSYN1 (11734609_at) / RFU RASL12 (11751679_a_at) / Fold change /veh RASL12 (11751679_a_at) / RFU CDKN2B (11736163_a_at) / Fold change /veh CDKN2B (11736163_a_at) / RFU PRF1 (11729649_at) / Fold change /veh PRF1 (11729649_at) / RFU, ZNF638 /// ZNF638-IT1 / Fold change vs veh, ZNF638 /// ZNF638-IT1 / RFU, PANK3 / Fold change vs veh, PANK3 / RFU, SH3YL1 / Fold change vs veh, SH3YL1 / RFU, ZEB2 / Fold change vs veh, ZEB2 / RFU, NRIP1 / Fold change vs veh, NRIP1 / RFU, PTTG1IP / Fold change vs veh, PTTG1IP / RFU, CAPN2 / Fold change vs veh, CAPN2 / RFU, MED14 / Fold change vs veh, MED14 / RFU, SNORA58 / Fold change vs veh, SNORA58 / RFU, C1orf63 / Fold change vs veh, C1orf63 / RFU, LRRFIP1 / Fold change vs veh, LRRFIP1 / RFU, NDUFAF7 / Fold change vs veh, NDUFAF7 / RFU, SLC12A2 / Fold change vs veh, SLC12A2 / RFU, IBTK / Fold change vs veh, IBTK / RFU, ESF1 / Fold change vs veh, ESF1 / Fold change vs veh, TMEM50B / RFU, TAOK1 / Fold change vs veh, TAOK1 / RFU, ACBD3 / Fold change vs veh, ACBD3 / RFU, TMA16 / Fold change vs veh, TMA16 / RFU, RWDD3 / Fold change vs veh, RWDD3 / RFU, BCAT1 / Fold change vs veh, BCAT1 / RFU, EDEM3 / Fold change vs veh, EDEM3 / RFU, TMEM33 / Fold change vs veh, TMEM33 / RFU, WDR75 / Fold change vs veh, WDR75 / RFU, AHCTF1 / Fold change vs veh, AHCTF1 / RFU, TFRC / Fold change vs veh, TFRC / RFU, ZDHHC17 / Fold change vs veh, ZDHHC17 / RFU, NOM1 / Fold change vs veh, NOM1 / RFU, ARL8B / Fold change vs veh, ARL8B / RFU, ZBTB11 / Fold change vs veh, ZBTB11 / RFU, TAMM41 / Fold change vs veh, TAMM41 / RFU, KIAA1704 /// LOC100996395 / Fold change vs veh, KIAA1704 /// LOC100996395 / RFU, ING1 / Fold change vs veh, ING1 / RFU, TRMT61B / Fold change vs veh, TRMT61B / RFU, FUBP3 / Fold change vs veh, FUBP3 / RFU, TP53 / Fold change vs veh, TP53 / RFU, TNKS2 / Fold change vs veh, TNKS2 / RFU, ZFP14 / Fold change vs veh, ZFP14 / RFU, ACTR2 / Fold change vs veh, ACTR2 / RFU, PPP3R1 / Fold change vs veh, PPP3R1 / RFU, PIK3R1 / Fold change vs veh, PIK3R1 / RFU, HNRNPA1 / Fold change vs veh, HNRNPA1 / RFU, RNF170 / Fold change vs veh, RNF170 / RFU, ZNF28 / Fold change vs veh, ZNF28 / RFU, RNGTT / Fold change vs veh, RNGTT / RFU, OGT / Fold change vs veh, OGT / RFU, BRD1 / Fold change vs veh, BRD1 / RFU, MARS / Fold change vs veh, MARS / RFU, ZNF655 / Fold change vs veh, ZNF655 / RFU, FAHD1 / Fold change vs veh, FAHD1 / RFU, BDP1 / Fold change vs veh, BDP1 / RFU, LRRCC1 / Fold change vs veh, LRRCC1 / RFU, ARID1A / Fold change vs veh, ARID1A / RFU, ZNF146 / Fold change vs veh, ZNF146 / RFU, ZNF330 / Fold change vs veh, ZNF330 / RFU, GPN3 / Fold change vs veh, GPN3 / RFU, C9orf123 / Fold change vs veh, C9orf123 / RFU, N4BP2L2 / Fold change vs veh, N4BP2L2 / RFU, ARFIP1 / Fold change vs veh, ARFIP1 / RFU, FAM179B / Fold change vs veh, FAM179B / RFU, BCL10 / Fold change vs veh, BCL10 / RFU, UHRF1BP1L / Fold change vs veh, UHRF1BP1L / RFU, BET1 / Fold change vs veh, BET1 / RFU, CNOT2 / Fold change vs veh, CNOT2 / RFU, ZNF268 / Fold change vs veh, ZNF268 / Fold change vs veh, ZNF507 / RFU, DGCR2 / Fold change vs veh, DGCR2 / RFU, WDSUB1 / Fold change vs veh, WDSUB1 / Fold change vs veh, HSP90B1 /// MIR3652 / RFU, ADSS / Fold change vs veh, ADSS / RFU, GK / Fold change vs veh, GK / RFU, ZNF148 / Fold change vs veh, ZNF148 / RFU, TAF9 / Fold change vs veh, TAF9 / RFU, SLC1A5 / Fold change vs veh, SLC1A5 / RFU, SLMO2 / Fold change vs veh, SLMO2 / RFU, ABCC4 / Fold change vs veh, ABCC4 / RFU, LOC101060439 /// RAP1B / Fold change vs veh, LOC101060439 /// RAP1B / RFU, RFX7 / Fold change vs veh, RFX7 / RFU, GTPBP10 / Fold change vs veh, GTPBP10 / RFU, CNEP1R1 / Fold change vs veh, CNEP1R1 / RFU, BIVM-ERCC5 /// ERCC5 / Fold change vs veh, BIVM-ERCC5 /// ERCC5 / RFU, ILF3 / Fold change vs veh, ILF3 / RFU 11762660_at / Fold change /veh 11762660_at / RFU VCAN (11757783_s_at) / Fold change /veh VCAN (11757783_s_at) / RFU DDX43 (11728927_at) / Fold change /veh DDX43 (11728927_at) / RFU KRT8 (11758188_x_at) / Fold change /veh KRT8 (11758188_x_at) / RFU NKD1 (11759106_at) / Fold change /veh NKD1 (11759106_at) / RFU SRD5A1 (11742802_a_at) / Fold change /veh SRD5A1 (11742802_a_at) / RFU TPSAB1 /// TPSB2 (11721975_s_at) / Fold change /veh TPSAB1 /// TPSB2 (11721975_s_at) / RFU GSTM3 (11746129_a_at) / Fold change /veh GSTM3 (11746129_a_at) / RFU IL23R (11737362_x_at) / Fold change /veh IL23R (11737362_x_at) / RFU TMEM51 (11727254_a_at) / Fold change /veh TMEM51 (11727254_a_at) / RFU PIWIL2 (11732686_x_at) / Fold change /veh PIWIL2 (11732686_x_at) / RFU ORM1 (11744905_x_at) / Fold change /veh ORM1 (11744905_x_at) / RFU CCDC152 (11743942_at) / Fold change /veh CCDC152 (11743942_at) / RFU ECM1 (11717891_a_at) / Fold change /veh ECM1 (11717891_a_at) / RFU IL23R (11748794_a_at) / Fold change /veh IL23R (11748794_a_at) / RFU TNFAIP8L3 (11732012_x_at) / Fold change /veh TNFAIP8L3 (11732012_x_at) / RFU MBOAT4 (11741988_at) / Fold change /veh MBOAT4 (11741988_at) / RFU 11764193_at / Fold change /veh 11764193_at / RFU TMEM53 (11763286_at) / Fold change /veh TMEM53 (11763286_at) / RFU MAGEB2 (11727129_at) / Fold change /veh MAGEB2 (11727129_at) / RFU TMEM200A (11744735_a_at) / Fold change /veh TMEM200A (11744735_a_at) / RFU CCDC152 (11751479_a_at) / Fold change /veh CCDC152 (11751479_a_at) / RFU FAM211A (11726209_a_at) / Fold change /veh FAM211A (11726209_a_at) / RFU RGS16 (11746705_a_at) / Fold change /veh RGS16 (11746705_a_at) / RFU VCAN (11755009_s_at) / Fold change /veh VCAN (11755009_s_at) / RFU RHOB (11743442_s_at) / Fold change /veh RHOB (11743442_s_at) / RFU RGS16 (11720943_a_at) / Fold change /veh RGS16 (11720943_a_at) / RFU RGS16 (11720944_at) / Fold change /veh RGS16 (11720944_at) / RFU, VPS4B / Fold change vs veh, VPS4B / RFU, CREB1 / Fold change vs veh, CREB1 / RFU, DNAJC13 / Fold change vs veh, DNAJC13 / RFU, GNAQ / Fold change vs veh, GNAQ / RFU, CDK5R1 / Fold change vs veh, CDK5R1 / RFU, ZRANB3 / Fold change vs veh, ZRANB3 / RFU, CUL4A / Fold change vs veh, CUL4A / RFU, CCNY / Fold change vs veh, CCNY / RFU, UFL1 / Fold change vs veh, UFL1 / RFU, COG3 / Fold change vs veh, COG3 / RFU, DIAPH2 / Fold change vs veh, DIAPH2 / RFU, SKA2 / Fold change vs veh, SKA2 / RFU, AFF3 / Fold change vs veh, AFF3 / RFU, LMF1 / Fold change vs veh, LMF1 / RFU, IPO11 / Fold change vs veh, IPO11 / RFU, DFFB / Fold change vs veh, DFFB / RFU, FOXP1 / Fold change vs veh, FOXP1 / RFU, CARD8 / Fold change vs veh, CARD8 / RFU, STRN3 / Fold change vs veh, STRN3 / RFU, ADK / Fold change vs veh, ADK / RFU, RASSF2 / Fold change vs veh, RASSF2 / RFU, WIPF1 / Fold change vs veh, WIPF1 / RFU, LARP1B / Fold change vs veh, LARP1B / RFU, RASA1 / Fold change vs veh, RASA1 / RFU, RB1 / Fold change vs veh, RB1 / RFU, PPFIA1 / Fold change vs veh, PPFIA1 / RFU, MAT2A / Fold change vs veh, MAT2A / RFU, CCT5 / Fold change vs veh, CCT5 / RFU, WDR92 / Fold change vs veh, WDR92 / RFU, CUX1 / Fold change vs veh, CUX1 / RFU, TTC7A / Fold change vs veh, TTC7A / RFU, TMEM135 / Fold change vs veh, TMEM135 / RFU, DEPTOR / Fold change vs veh, DEPTOR / RFU, CPM / Fold change vs veh, CPM / RFU, DNAJB6 / Fold change vs veh, DNAJB6 / RFU, CACNA2D3 / Fold change vs veh, CACNA2D3 / RFU, DTX4 / Fold change vs veh, DTX4 / RFU, TFCP2 / Fold change vs veh, TFCP2 / RFU, GMCL1 /// GMCL1P1 / Fold change vs veh, GMCL1 /// GMCL1P1 / RFU, AEBP2 / Fold change vs veh, AEBP2 / RFU, SNHG1 /// SNORD22 /// SNORD25 /// SNORD26 /// SNORD27 /// SNORD28 /// SNORD29 /// SNORD31 / Fold change vs veh, SNHG1 /// SNORD22 /// SNORD25 /// SNORD26 /// SNORD27 /// SNORD28 /// SNORD29 /// SNORD31 / Fold change (Aza/veh), C12orf56 (ProbeSet 11735607_a_at) / Fold change (ACY-1035/veh), C12orf56 (ProbeSet 11735607_a_at) / Fold change (Aza/veh), FGFR1OP (ProbeSet 11751329_s_at) / Fold change (ACY-1035/veh), FGFR1OP (ProbeSet 11751329_s_at) / Fold change (Aza/veh), VPS36 (ProbeSet 11739960_a_at) / Fold change (ACY-1035/veh), VPS36 (ProbeSet 11739960_a_at) / RFU SYPL1 (11715823_x_at) / Fold change /veh SYPL1 (11715823_x_at) / RFU IGFBP7 (11715501_s_at) / Fold change /veh IGFBP7 (11715501_s_at) / RFU REEP3 (11722064_at) / Fold change /veh REEP3 (11722064_at) / RFU IGLL1 (11728026_x_at) / Fold change /veh IGLL1 (11728026_x_at): dose or concentration left out as unconfirmed
Settings: MV-4-11 cells, 48 hours

Nc1ccc(-c2cccs2)cc1NC(=O)c1ccc2c(c1)cc(C1CC1)n2CCN1CCOCC1 [ACY-1035]
RFU FAM212B (11763350_a_at): 31.32 RFU

From PMC5218480 (PLoS ONE, 2017)
